Test results from patent US20060193781A1, “Magnetic resonance imaging of metal concentrations” (priority 2002, published 2006).
Where two headings read alike, the source gives them in different places.

Legend:
[1] = Fluorine nuclear relaxation times T1 and T2 and chemical shift of 5F-BAPTA with and without zinc, in water and octanol; type: physicochemical
Procedure: All fluorine NMR spectra were collected with a 400 MHz Oxford/Varian Unity Plus spectrometer at 25° C. The nominal 90° pulse width was 7.8 μsec.
An equivalent volume (0.7 ml) n-octanol was added, and the mixture was shaken vigorously. The organic and aqueous phases were separated by pipette and placed in NMR tubes. To the octanol solution was added 0.1 ml deuterated methanol to provide an NMR lock signal.

[2] = for T2 bound / T2 free: 2 mM complexing agent, 400 MHz, 25° C.
Procedure: All fluorine NMR spectra were collected with a 400 MHz Oxford/Varian Unity Plus spectrometer at 25° C. The nominal 90° pulse width was 7.8 μsec. Transverse relaxation times were determined by the best fit of data collected using the Carr-Purcell-Meiboom-Gill sequence supplied with the spectrometer.
A 1 M solution of Ultra Pure ZnCl2 (Sigma) was prepared and diluted in a serial fashion to produce intermediate stock solutions of concentration 100 mM and 10 mM in water. A 200 mM solution of 5-T-BAPTA (Molecular Probes) was prepared and added to aliquots of either zinc solution, as appropriate, in sufficient quantity to yield a final, fixed concentration of 2 mM of the complexing agent.

[3] = aqueous solution of the zinc complex
[4] = aqueous solution without zinc, HEPES buffer, 400 MHz, 25° C.
[5] = Sample 2: ZnCl2 0.5 mM, MgCl2 1.5 mM

| Structure (SMILES) | change of fluorine transverse relaxation time upon complexation with Zn^+2 [1] | T1 value [1, 3] [s] | T2 value [1, 3] | T1 value [1, 4] [s] | T2 value [1, 4] [s] | T2 value ([1]; zinc complex in octanol) [s] | T1 value ([1]; zinc complex in octanol solution) [s] | T2 bound ([2]; Sample 1: ZnCl2 2.0 mM, MgCl2 1.0 mM, CaCl2 2.0 mM) [s] | T2 of the complex (Sample 1) relative to T2 of the free complexing agent (Sample 3) ([2]; Sample 1 vs Sample 3) | T2 bound [2, 5] [s] | T2 free [2, 5] [s] | T2 free ([2]; Sample 3: ZnCl2 0 mM, MgCl2 1.65 mM, CaCl2 3.35 mM) [s] | T2 bound ([2]; Sample 4: ZnCl2 3.5 mM, MgCl2 0.5 mM, CaCl2 1.0 mM) [s] |
| --- | --- | --- | --- | --- | --- | --- | --- | --- | --- | --- | --- | --- | --- |
| O=C(O)CN(CC(=O)O)c1ccc(F)cc1OCCOc1cc(F)ccc1N(CC(=O)O)CC(=O)O [5F-BAPTA, 1,2-bis-(2-amino-5-fluorophenoxy)ethane-N,N,N′,N′-tetraacetic acid] | large reduction | 0.82 ± 0.01 | 0.0248±0.0003 | 0.82 ± 0.01 | 0.080 ± 0.003 | 0.013 ± 0.001 | 0.53 ± 0.01 |  |  |  |  |  |  |
| O=C(O)CN(CC(=O)O)c1ccc(C(F)(F)F)cc1OCCOc1cc(C(F)(F)F)ccc1N(CC(=O)O)CC(=O)O [5T-BAPTA, 1,2-bis-(2-amino-5-trifluoromethylphenoxy)ethane-N,N,N′,N′-tetra acetic acid] |  |  |  |  |  |  |  | 0.14 ± 0.03 | ⅕ | 0.265 ± 0.025 | 0.387 ± 0.012 | 0.763 ± 0.032 | 0.216 ± 0.007 |
